# Test results taken from patent publication US20200148682A1, “AKT ISOZYME-SPECIFIC COVALENT INHIBITORS DERIVED FROM REDOX-SIGNALING LIPIDS” (Cornell University, priority 2017, published 2020).
# Columns and labels:
# [1] = target: T1, Akt3 (pT305) (Homo sapiens, UniProt Q9Y243); assay: Western blot and ratiometric ELISA of Akt phosphorylation in HEK293T cells; type: cell-based; settings: 5 μM, 48 hours
# T1 construct: expressed in transfected cells; host or cells: HEK293T
# Description: (§1) After this time, cells were lysed and analyzed by antibodies for phosphorylated T305 (pT305) of Akt3, Halo (Akt), and Actin (loading control). […] FIG. 23F is a graph showing proliferation curves. […] After this time, the number of viable cells was calculated using AlamarBlue®. Proliferation curves were fitted to the PI50 equation (EQN. 4). […] FIG. 23H is a graph showing the percentage of viable cells. […] The percentage of growth relative to DMSO-treated cells is shown for the 48 hour point and the 72 hour point. FIG. 23I is a schematic showing the different methods used to derive the data in 23H.
# The proteins in gel were transferred onto a PVDF membrane in Towbin buffer at 90 V for 2 hours at 4° C. or at 33 V overnight at 4° C. […] Proteins were visualized using Pierce™ ECL Western Blotting Substrate (32106, Thermo Fisher), Pierce™ ECL2 Western Blotting Substrate (32132, Thermo Fisher) or SuperSignal™ Western Blot Enhancer (46640, Thermo Fisher), depending on the signal strength.
# Anti-Halo antibody at 1 μg/mL concentration in sodium bicarbonate buffer (pH 9.6) was added to a 96-well white plate (80 μL […]) at 4° C. for 24 hours. After this, the incubation buffer was removed and the wells were washed once with TBS-T2 (100 mM Tris, 150 mM NaCl 0.03% Tween-20) and then blocked in 5% BSA in TBS-T2 (280 μL per well) for 3-5 hours at room temperature. […]
# [2] = target: T2, recombinant Akt3 (Homo sapiens, UniProt Q9Y243); assay: NADH-coupled Akt activity assay (progress curve analysis); type: biochemical
# T2 construct: purchased Active Motif 31147
# Source text: FIGS. 20A-20H show the kinetic analysis of Akt3 covalent inhibition by MK-HNE, MK-FNE, and MK-dHNE. FIG. 20A is a schematic representation of the NADH-coupled kinetic assay to monitor the progress of Akt-catalyzed phosphorylation of the known peptide substrate, Crosstide (Akt substrate, cat. No. sc-471145, Santa Cruz). […] The solid curves are the best nonlinear fits of the data using EQN. 1. FIG. 20D is a graph showing a replot of kobs for the progress curve as a function of MK-HNE concentration. FIG. 20F is a graph showing a replot of kobs for the progress curve as a function of MK-dHNE concentration. The hyperbolic curve is the best nonlinear fit to EQN. 2. FIG. 20H is a graph showing kobs for the progress curve as a function of MK-FNE concentration fit to a cooperative binding equation using EQN 3. Inhibition of recombinant Akt3 ([…]) by MK-HNE, MK-dHNE, and MK-FNE was assayed by progress curve analysis: inhibitor was added to enzyme in assay buffer containing 100 nM Akt3 kinase, 100 μM Crosstide (Akt substrate, cat. No. sc-471145, Santa Cruz), 500 μM ATP, 4 mM TCEP, 5 mM phosphoenolpyruvate, pyruvate kinase (24-40 units/mL), lactate dehydrogenase (36-56 units/mL), 500 μM NADH and various concentrations of the inhibitor. All curves were background rate subtracted. Product formation was measured continuously for 6 min. Over this time, Akt3 activity was constant in the absence of the inhibitors.
# To a 96-well plate with varying amounts of indicated inhibitors was added the kinetic assay mixture containing, in final concentrations, 50 mM HEPES, 100 mM NaCl, 10 mM MgCl2, 5 mM phosphoenolpyruvate, 500 μM NADH, 100 μM crosstide (the Akt substrate, cat. No. sc-471145, Santa Cruz), pyruvate kinase (24-40 units/mL), lactate dehydrogenase (36-56 units/mL), 4 mM TCEP, 500 μM ATP. […] The progress of phosphorylation was monitored by reading absorbance at 340 nm over the course of study. […]
# To gain a more quantitative understanding of the covalent inhibitors, inhibition of Akt3 by MK-HNE in vitro was investigated. […] Loss of NADH was measured by decrease in A340 as a function of time. […]
# [3] = tested on: MDA-MB-468 cells; assay: Drug effect persistence assay; type: cell-based; settings: for proliferation after drug withdrawal vs continuous treatment: 48 hours drug, then 24 hours without
# Description: as §1
# MDA-MB-468 cells were plated in a 96-well plate at a density of 3,000-5,000 cells per well for 10 hours before the addition of varying concentrations of inhibitors. The cells were allowed to grow for 48 hours. The cell medium was aspirated and the cells were washed once with DMEM medium. The cells continued to grow in 5% FBS DMEM medium for 24 hours before adding 1/10th volume of AlamarBlue® reagent to cells in culture medium. The fluorescence emission signals at 590 nm were read using a Cytation 3 cell imaging multi-mode reader (BioTeK) using an excitation wavelength of 560 nm. Curve fitting and data analyses were performed using Prism software (FIG. 23I).
# T2 sequence (Q9Y243 whole entry): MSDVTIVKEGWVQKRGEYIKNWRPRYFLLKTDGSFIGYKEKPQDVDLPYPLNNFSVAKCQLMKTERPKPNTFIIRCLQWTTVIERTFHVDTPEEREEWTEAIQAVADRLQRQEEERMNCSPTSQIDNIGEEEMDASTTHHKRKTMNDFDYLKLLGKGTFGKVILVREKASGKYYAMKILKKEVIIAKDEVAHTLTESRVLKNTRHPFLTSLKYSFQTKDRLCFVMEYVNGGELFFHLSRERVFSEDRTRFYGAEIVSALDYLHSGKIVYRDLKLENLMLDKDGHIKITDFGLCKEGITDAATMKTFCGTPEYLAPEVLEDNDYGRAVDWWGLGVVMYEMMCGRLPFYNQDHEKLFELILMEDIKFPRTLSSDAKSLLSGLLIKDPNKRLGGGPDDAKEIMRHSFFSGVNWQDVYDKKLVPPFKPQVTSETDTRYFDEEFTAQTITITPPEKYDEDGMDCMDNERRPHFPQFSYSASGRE
# T1 sequence (Q9Y243 whole entry): as above
inhibition profile of Akt3 ([2]; progress curves),n (Hill coefficient) ([2]; cooperative binding fit of kobs vs concentration),"kinact/KI ([2]; recombinant Akt3, as stated in text) [M⁻¹ s⁻¹]",Structure (SMILES),phosphorylation of T305 of Akt3 [1],proliferation after drug withdrawal vs continuous treatment [3],"EC60 concentration ([3]; MDA-MB-468, concentration used for 48 hours treatment) [nM]"
time-dependent inhibitor,,,"C#CCCCC(O)/C=C/C(=O)NC1(c2ccc(-c3nc4ccn5c(=O)[nH]nc5c4cc3-c3ccccc3)cc2)CCC1.Cl (centres unmarked) [MK-HNE, (E)-8-(4-(1-(4-Hydroxynon-2-en-8-ynamido)cyclobutyl)phenyl)-3-oxo-9-phenyl-2,3-dihydro-[1,2,4]triazolo[3,4-f][1,6]naphthyridin-7-ium Chloride]",did not affect phosphorylation levels,,
,,,NC1(c2ccc(-c3nc4ccn5c(=O)[nH]nc5c4cc3-c3ccccc3)cc2)CCC1 [MK-2206],lowered phospho-T305 (pT305) levels considerably,significant regain of proliferation,2000
,3.2,~10000,"C#CCCCC(F)/C=C/C(=O)NC1(c2ccc(-c3nc4ccn5c(=O)[nH]nc5c4cc3-c3ccccc3)cc2)CCC1.Cl (centres unmarked) [MK-FNE, (E)-8-(4-(1-(4-Fluoronon-2-en-8-ynamido)cyclobutyl)phenyl)-3-oxo-9-phenyl-2,3-dihydro-[1,2,4]triazolo[3,4-f][1,6]naphthyridin-7-ium Chloride]",,no difference between withdrawal (wd) and continuous (cont) treatment,
